A word on the IC50: it is the concentration at which inhibition is half-maximal. One may read the Dmax as the largest share of the target that was removed. A higher Dmax goes with deep degradation. Broadly, the EC50 is the concentration giving half of the maximal effect.

Drawing on patent US12310975B2, “Modulators of BCL6 proteolysis and associated methods of use” (Arvinas Operations, Inc., priority 2019, dated 2025), this text covers IC50, Dmax and EC50 for six molecules.

Test [1] concerns the target T1, BCL6 (Homo sapiens (Human), UniProt P41182). The test is described as follows: Immunofluorescence high content imaging of BCL6 degradation in T47D cells. The class given is cell-based. To be noted: for Dmax: T47D. In a few lines: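 BCL6 loss was quantified by high-content imaging (10×, 4 fields/well) after PFA fixation and anti-BCL6/Alexa-488 staining with Hoechst nuclear and CellMask counterstains. Compounds were applied for 3 days to T47D breast cancer cells in RPMI-10% FBS, 11 points, 3-fold steps, top 0.1 or 1 μM.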

The target of test [2] is T1, BCL6. Nature of the test: BCL6 TR-FRET assay (BCL6-Avitag-Biotin / BCoR-Cy5 peptide). The class given is binding. The essentials:
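TR-FRET displacement assay: biotinylated His-SUMO-BCL6-Avitag (2 nM) pre-incubated 30 min at room temperature with compound (12-point 3-fold titration), then BCoR-Cy5 peptide (100 nM) and Eu-streptavidin (2 nM) added. Buffer: 50 mM HEPES pH 7.5, 125 mM NaCl, 0.01% Triton X, glutathione or DTT, 0.03% BSA. Read after 2 h.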
A general note: In TR-FRET formats the signal depends on donor and acceptor labels being close together.

At BCL6 [1], `CNC(=O)COc1cc2cc(Nc3nc(N4CC5CC4CN5CC4CCN(c5ccc6c(c5)C(=O)N(C5CCC(=O)NC5=O)C6=O)CC4)ncc3Cl)ccc2n(C)c1=O` (stereo not drawn) [compound 195, 2-((6-((5-chloro-2-(5-((1-(2-(2,6-dioxopiperidin-3-yl)-1,3-dioxoisoindolin-5-yl)piperidin-4-yl)methyl)-2,5-diazabicyclo [2.2.1]heptan-2-yl)pyrimidin-4-yl)amino)-1-methyl-2-oxo-1,2-dihydroquinolin-3-yl)oxy)-N-methylacetamide] came in with an IC50 of 10 to 50 nM and a Dmax of under 50%. For the same molecule, the EC50 on BCL6 [2] was under 10 nM.

At BCL6 [1], `CNC(=O)COc1cc2cc(Nc3nc(N4CCC(CN5CCN(c6ccc7c(c6)C(=O)N(C6CCC(=O)NC6=O)C7=O)CC5=O)CC4)ncc3Cl)ccc2n(C)c1=O` (stereo not drawn) [compound 196, 2-((6-((5-chloro-2-(4-((4-(2-(2,6-dioxopiperidin-3-yl)-1,3-dioxoisoindolin-5-yl)-2-oxopiperazin-1-yl)methyl)piperidin-1-yl)pyrimidin-4-yl)amino)-1-methyl-2-oxo-1,2-dihydroquinolin-3-yl)oxy)-N-methylacetamide] registered a half-maximal inhibitory concentration (IC50) of 10 to 50 nM and a Dmax of 50 to 70%. The same molecule displayed an EC50 at BCL6 [2] of 10 to 50 nM.

At BCL6 [1], `CNC(=O)COc1cc2cc(Nc3cc(N4CCC(CN5CCN(c6ccc7c(c6)C(=O)N(C6CCC(=O)NC6=O)C7=O)CC5)CC4)ncc3Cl)ccc2n(C)c1=O` (stereo not drawn) [compound 197, 2-((6-((5-chloro-2-(4-((4-(2-(2,6-dioxopiperidin-3-yl)-1,3-dioxoisoindolin-5-yl)piperazin-1-yl)methyl)piperidin-1-yl)pyridin-4-yl)amino)-1-methyl-2-oxo-1,2-dihydroquinolin-3-yl)oxy)-N-methylacetamide] showed an IC50 of 50 to 100 nM and a Dmax of 50 to 70%. In addition, the EC50 on BCL6 [2] lay within 50 to 100 nM.

On BCL6 [1], `CCNC(=O)COc1cc2cc(Nc3nc(N4CCC(CN5CCN(c6ccc7c(c6)C(=O)N(C6CCC(=O)NC6=O)C7=O)CC5)CC4)ncc3Cl)ccc2n(C)c1=O` (stereo not drawn) [compound 198, 2-((6-((5-chloro-2-(4-((4-(2-(2,6-dioxopiperidin-3-yl)-1,3-dioxoisoindolin-5-yl)piperazin-1-yl)methyl)piperidin-1-yl)pyrimidin-4-yl)amino)-1-methyl-2-oxo-1,2-dihydroquinolin-3-yl)oxy)-N-ethylacetamide] came in with an IC50 of 50 to 100 nM and a Dmax of 50 to 70%. Further, at BCL6 [2], the EC50 is over 100 nM.

At BCL6 [1], `CC(=O)COc1cc2cc(Nc3nc(N4CCC(CN5CC(C6CN(c7ccc8c(c7)C(=O)N(C7CCC(=O)NC7=O)C8=O)C6)C5)CC4)ncc3Cl)ccc2n(C)c1=O` (stereo not drawn) [compound 199, 5-(1′-((1-(5-chloro-4-((1-methyl-2-oxo-3-(2-oxopropoxy)-1,2-dihydroquinolin-6-yl)amino)pyrimidin-2-yl)piperidin-4-yl)methyl)-[3,3′-biazetidin]-1-yl)-2-(2,6-dioxopiperidin-3-yl)isoindoline-1,3-dione] displayed an IC50 of 10 to 50 nM and a Dmax of 50 to 70%. This molecule also registered an EC50 on BCL6 [2] of under 10 nM.

With `CNC(=O)COc1cc2cc(Nc3nc(N4CCC(C(C)(C)N5CCN(c6ccc7c(c6)C(=O)N(C6CCC(=O)NC6=O)C7=O)CC5)CC4)ncc3Cl)ccc2n(C)c1=O` (stereo not drawn) [compound 200, 2-((6-((5-chloro-2-(4-(2-(4-(2-(2,6-dioxopiperidin-3-yl)-1,3-dioxoisoindolin-5-yl)piperazin-1-yl)propan-2-yl)piperidin-1-yl)pyrimidin-4-yl)amino)-1-methyl-2-oxo-1,2-dihydroquinolin-3-yl)oxy)-N-methylacetamide], on BCL6 [1], the IC50 lay within 10 to 50 nM and the Dmax was 50 to 70%. The molecule further returned an EC50 on BCL6 [2] of over 100 nM.
